Results from US12226476B2, “Helper epitope peptide and application thereof” (CHINA PHARMACEUTICAL UNIVERSITY, priority 2018, dated 2025).
Non-standard residues stand in square brackets, D forms with d. No end group written: not given here. Phe(4-NO2) = N[C@@H](Cc1ccc([N+](=O)[O-])cc1)C(=O)O

Key:
Type in all cases: in vivo
target cells = experiment: CTL-mediated cytotoxicity of PBMC from spleen of immunized mice, LDH kit; settings: one week after last immunization
Protocol: (§1) The protocol is as follows: • (1) The helper epitope was connected to individual antigens or antigen epitope with the linking peptide to construct multiple fusion antigens. The sequence of the linking peptide is GPSL (i.e. Gly-Pro-Ser-Leu) (SEQ ID NO:51). • (2) The fusion antigens from (1) were emulsified adequately with complete Freund's adjuvant of the same volume. Then to immunize mice via subcutaneous injection with the emulsion at the dose of 50 μg per mouse. The strains of experimental mice including C57, Fvb and Balb/C. After 7 days and 14 days of first immunization, the fusion antigens from (1) were emulsified adequately with incomplete Freund's adjuvant of the same volume and then to immunize mice via subcutaneous injection with the emulsion at the dose of 50 μg per mouse. • (3) There are two detection methods. One is to obtain the orbital blood of immunized mice on 7, 14, 21 and 28 day respectively, centrifuge the whole blood to get the serum. Then the antibody titer is detected by indirect ELISA. The other one is: one week after the last immunization, the mice are killed to get the spleen. PBMC (peripheral blood mononuclear cells) are isolated, and the CTL-mediated cytotoxicity is detected by LDH (lactate dehydrogenase) kit.
The first step was to construct the fusion antigen. […]
Method 2: one week after last immunization, mice were sacrificed, and spleen was taken; then PBMC (peripheral blood mononuclear cells) were isolated, and the CTL-mediated cytotoxicity was detected by LDH (lactate dehydrogenase) kit. • (1) Setting control: The control group was divided into effector cell spontaneous release group, experimental group, target cell spontaneous release group, target cell maximum release group, volume correction control group and background control group; • (2) The cells were centrifuged at 250 g for 4 minutes to make the effector cells fully contact with the target cells; • (3) The detection plate was incubated with 5% CO2 at 37° C. for 4 hours; 10 μL of Lysis buffer was added to every 100 μL medium (10×) in the target cell maximum release group. […]

B epitope SEQ ID NO: 43 = experiment: Antibody titer in serum of immunized mice, indirect ELISA; settings: FIG. 23; compared with the B epitope SEQ ID NO: 43 group and the B epitope SEQ ID NO: 43-PADRE group; mice immunized subcutaneously, 50 μg, Freund's adjuvant
Protocol: as §1, with “One is to obtain the orbital blood of immunized mice on 7, 14, 21 and 28 day respectively, centrifuge the whole blood to get the serum.” left out, “The other one is: one week after the last immunization, the mice are killed to get the spleen.” left out, “kit. […]” for “kit.”
(§2) Method 1: The whole blood was collected every week after immunization and centrifugated at 6000 rpm for 20 min to obtain the serum for a total of 4 weeks. Antibody titers were detected by indirect ELISA as follows: • (1) Coating: the existing antigen or antigen epitope was diluted to 5 μg/mL with coating solution. […]

Aβ protein-42 = experiment: as above; settings: FIG. 24; compared with the Aβ protein-42 group and the Aβ protein-PADRE group; mice immunized subcutaneously, 50 μg, Freund's adjuvant
Protocol: as §1, with “One is to obtain the orbital blood of immunized mice on 7, 14, 21 and 28 day respectively, centrifuge the whole blood to get the serum.” left out, “The other one is: one week after the last immunization, the mice are killed to get the spleen.” left out, “kit. […]” for “kit.”
as §2

In the case of “TGYLYISAGPSLAXFVAAWTLKAAA (TGYLYISAGPSLA[Phe(4-NO2)]FVAAWTLKAAA) [epitope 2+2p-PADRE]”, the CTL-mediated cytotoxicity (target cells; FIG. 21, compared with the epitope SEQ ID NO:41 group and the epitope SEQ ID NO: 41-PADre group) is reported as “significantly enhanced”.

For “FLPESFDGDPASNTAPLQPEGPSLAKFXAAWTLKAAA (FLPESFDGDPASNTAPLQPEGPSLAKF[Phe(4-NO2)]AAWTLKAAA) [B epitope+3 pPhe-PADRE]”, the antibody titers (B epitope SEQ ID NO: 43) was “significant increase”.

For “VLDNGDPLGPSLXKFVAAWTLKAAA (VLDNGDPLGPSL[Phe(4-NO2)]KFVAAWTLKAAA) [epitope 1+1p-PADRE]”, the CTL-mediated cytotoxicity (target cells; FIG. 20, compared with the epitope SEQ ID NO:40 group and the epitope SEQ ID NO: 40-PADre group) was “significantly enhanced”.

With “LVFFAEDVGSNKGAIIGLMVGGVVIAGPSLAKFVAXWTLKAAA (LVFFAEDVGSNKGAIIGLMVGGVVIAGPSLAKFVA[Phe(4-NO2)]WTLKAAA) [A-beta protein-6pPhe-PADRE]” the antibody titers (Aβ protein-42) was “significant increase”.

“VLDNGDPLGPSLTGYLYISAGPSLAKXVAAWTLKAAA (VLDNGDPLGPSLTGYLYISAGPSLAK[Phe(4-NO2)]VAAWTLKAAA) [epitope 3+3p-PADRE]” was tested, and the CTL-mediated cytotoxicity (target cells; FIG. 22, compared with the epitope SEQ ID NO:42 group and the epitope SEQ ID NO: 42-PADre group) was “significantly enhanced”.
